# In patent US20260376293A1, “METHODS FOR STUDYING GPR158 PHARMACOLOGY AND IDENTIFICATION OF ITS LIGANDS” (UNIVERSITY OF FLORIDA RESEARCH FOUNDATION, INCORPORATED, priority 2022, published 2026):
# Test system: layer II-III pyramidal neurons
# Experiment: Whole cell recordings, layer II-III prelimbic cortex neurons, WT mice
# Format: cell-based, mouse
# Settings: 1 mM
# Protocol: FIGS. 14A-14H. Effect of glycine on neuronal excitability. A) Schematic of the electrophysiological recordings in slice preparation targeting mPFC neurons of layer II-III. Experiments were conducted with a cocktail of synaptic blockers: picrotoxin (100 μM) (blockade of GABAA receptor chloride channels), strychnine (1 μM) (antagonist of glycine and acetylcholine ionotropic receptors), CNQX (20 μM) (AMPA receptors antagonist), and APV (50 μM) (NMDAR antagonist). B) Representative traces of voltage responses to a 200 pA current ramp injection under control conditions and after bath application of glycine (1 mM) in WT mice. C) Quantification of changes in excitability by number of action potentials fired in response to 200 pA current ramp (n=8 neurons from 5 mice). Nonparametric t-test; Wilcoxon test, **p<0.01. D) Quantification of changes in excitability by rheobase current under control condition and glycine application (n=8 neurons from 5 mice). Nonparametric t-test; Wilcoxon test, **p<0.01. E) Representative traces of voltage responses to a 200 pA current ramp injection obtained from layer II-III pyramidal neurons in GPR158 KO mice under control conditions and during bath application of glycine (1 mM). F) Quantification of changes in excitability by number of action potentials fired in response to 200 pA current ramp (n=4 neurons/3 mice). Nonparametric t-test; Wilcoxon test, ns=p>0.05. G) Quantification of changes in excitability by rheobase current under control condition and glycine application (n=4 neurons/3 mice). Nonparametric t-test; Wilcoxon test, ns=p>0.05. H) Schematic representation of the proposed mechanism of glycine effects on mGlyR. In 14C, 14D, 14F, and 14G, solid circles (Ctrl), circles with no fill (Glycine), columns with no fill (Ctrl), and columns with dotted fill (Glycine).
# FIGS. 15A-15H. Effect of glycine and taurine on excitability of layer V neurons and membrane properties of layer II/III neurons in wild type and GPR158 knockout mice. A) Representative traces of voltage responses to a 200 pA current ramp injection obtained from layer V pyramidal neurons in WT mice under control conditions and during bath application of glycine (1 mM). B) Quantification of glycine effects on neuronal excitability by number of action potentials fired in response to 200 pA current ramp under control condition and glycine application (n=4 neurons/3 mice). Nonparametric t-test; Wilcoxon test, ns=p>0.05. C) Quantification of glycine effects on neuronal excitability by rheobase current under control condition and glycine application (n=4 neurons/3 mice). Nonparametric t-test; Wilcoxon test, ns=p>0.05. D) Resting membrane potential of layer V pyramidal neurons in WT mice under control conditions and during bath application of glycine (n=4 neurons/3 mice). […]
# [1] = 200 pA current ramp, synaptic blockers
Compound,resting membrane potential,number of action potentials fired [1],rheobase current [1]
NCC(=O)O [glycine],without changes in the resting membrane potential,significantly increased the number of action potentials,decreasing the amount of current necessary to elicit the first action potential
"NCCS(=O)(=O)O [taurine, 2-aminoethanesulfonic acid]",–,–,ns
